Measurements from patent publication US20230381213A1, “SYNTHESIS AND USES OF GINSENOSIDE COMPOUND K DERIVATIVES” (The University of Hong Kong, priority 2022, published 2023).
Like-named read-outs stand apart in the source and are kept apart here.

Experiments:
NCI-H460 cells [1] = test: MTT cytotoxicity in NCI-H460 cells
NCI-H460 cells [2] = tested on: NCI-H460 cells
A549 cells [3] = test: Apoptosis by flow cytometry (Annexin V-FITC / propidium iodide); format: cell-based; details: 48 hours
Method: (§1) The effect of CK and CKD-4 on cell apoptosis and cell death is indicated by A549 cells treated with 60 μM of CK and 20 μM of CKD-4 for 48 hours that are analyzed by flow cytometry. […] Angiogenesis is another hallmark of cancer which plays an important role in metastasis and tumor growth. […] Cancer stem cells, owing to their ability of self-renewal, have become the major reason for relapse of tumor and poor prognosis. The efficacy of CKD-4 in lung cancer patient derived organoid is indicated using CellTiterGlo assay, where three state of the art clinical anti-cancer drugs, carboplatin, cisplatin, and paclitaxel are a positive control. The dosage of these three drugs is sufficient to trigger a 30% inhibition of cell viability. FIG. 6 and FIG. 7 indicated less than 30% suppression of cell viability is observed with treatment of 20 μM CKD-4.

PRELID1 [4] = biological target: T1, PRELID1 (Homo sapiens, UniProt Q9Y255); test: Proteome integral solubility alteration (PISA) in cells; format: cell-based; details: in cell
T1 construct: endogenous in cells; host or cells: A549
T1 sequence (Q9Y255 whole entry): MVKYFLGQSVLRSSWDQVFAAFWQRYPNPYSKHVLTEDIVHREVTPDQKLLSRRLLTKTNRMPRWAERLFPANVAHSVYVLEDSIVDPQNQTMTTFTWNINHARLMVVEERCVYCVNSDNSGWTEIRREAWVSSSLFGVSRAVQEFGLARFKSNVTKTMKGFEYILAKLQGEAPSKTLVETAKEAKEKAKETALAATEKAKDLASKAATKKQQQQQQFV
T1 sequence (O43715 whole entry partner): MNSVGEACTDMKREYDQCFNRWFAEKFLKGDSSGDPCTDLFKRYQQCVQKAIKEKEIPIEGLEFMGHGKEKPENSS
Excerpt: Two label free chemical proteomics, proteome integral […] alteration assay (PISA) and ProtargetMiner (PTM) are alternative strategies to study CK and CKD-4. PISA is a turbo-charged method development of thermal proteome profiling (TPP) which based on the principle that ligand induced stability of proteins is observed upon a temperature increase. PTM is used to contrast the proteome signature of CK and CKD-4 against the PTM database to reveal their mode of action. FIGS. 9A and 9B provide an overview of the PISA results in cells with CK and CKD-4, where data is shown as a volcano plot with the X-axis as log2 ΔSm of drug over DMSO treatment and the Y-axis as log 10 p-value. In FIGS. 10 and 11 the PTM result of CK and CKD-4 in cells are compared to 9 other anti-cancer drugs in A549 cells in the database and is plotted for OPLS-DA analysis.
(§2) Most probable target candidate proteins are ranked in PISA based on the absolute value of log2 ΔSm of drug relative to DMSO treatment and PTM ranking are based on the log2 fold change of drug over DMSO treatment. The rankings of two experiments are summed to provide a list of candidate drug targets.

NCI-H460 xenografts = NCI-H460 xenografts in nude mice; format: in vivo; details: 5 mg/kg intravenous once every two days; for Tumor volume: versus solvent control
[5] = tested on: cytochrome c release in A549 cells; test: Cytochrome c in cytosol fractions, western blotting; format: cell-based; details: for Level of cytochrome c in cytosol: 24-hour treatment; for Cytochrome c release with PG in medium: 24 hours, with PG versus without PG
Excerpt: (§3) PRELID3b and PRELID1 are PRELI proteins. These proteins and TRIAP1 locate within the inter membrane space responsible for the regulation of phospholipid metabolism. Therefore, a cardiolipin probe is used to measure levels of mitochondrial cardiolipin after drug treatment. […] A decreased level of cardiolipin in PRELI or TRIAP1 depleted cells appears to accelerate the release of cytochrome c, rendering cells vulnerable to apoptosis. […] Cardiolipin is synthesized by a series of steps with phosphatidylglycerol (PG) as the precursor of last step catalyzing by cardiolipin synthase.

PRELID1 [6] = biological target: T1, PRELID1; test: Cellular thermal shift assay by western blotting, PRELID1; format: cell-based; details: A549 cells, one hour
Method: A549 cells were treated with 50 μM of CK or 15 μM of CKD-4 for one hour, where eight lysate aliquots were heated to indicated temperature.
as §2

A549 cells [7] = test: Cell viability with phosphatidylglycerol (PG) supplement, NBB assay; format: cell-based; details: 24 hours, PG supplemented DMEM versus DMEM
Method: FIG. 15C is a bar chart of the cell viability of A549 after treatment with 100 μM of CK or 12.5 μM of CKD-4 for 24 hours in DMEM or phosphatidylglycerol (PG) supplemented DMEM as mean±SD, ***P≤0.001.
as §3

A549 cells [8] = format: in vitro ADME; details: human, 10 μM
Excerpt: To explore the stability of CKD-4, the amount of CK in CKD-4 treated A549 cells was also quantified.

NCI-H1650 cells = test: Cytotoxicity in NCI-H1650 cells; format: cell-based; details: Homo sapiens
MS 1 cells = test: Tube formation (angiogenesis) on Matrigel; format: cell-based; details: 4 hours
Method: as §1

[9] = tested on: lung cancer patient derived organoid; test: Lung cancer patient derived organoid viability, CellTiterGlo; format: cell-based; details: 72 hours
Method: as §1

A549 cells [10] = test: Cytotoxicity in A549 cells; format: cell-based; details: Homo sapiens
[11] = tested on: CCD-19Lu lung normal fibroblast; test: Cytotoxicity in lung normal fibroblast CCD-19Lu; format: cell-based; details: Homo sapiens
PRELID3b-TRIAP1-MBP = biological target: T2, PRELID3b-TRIAP1-MBP (Homo sapiens, UniProt Q9Y3B1); test: Biolayer interferometry with his tag PRELID3b-TRIAP1-MBP; format: binding; details: for Kd: steady-state analysis, 1:1
T2 construct: made in house
T2 sequence (Q9Y3B1 whole entry): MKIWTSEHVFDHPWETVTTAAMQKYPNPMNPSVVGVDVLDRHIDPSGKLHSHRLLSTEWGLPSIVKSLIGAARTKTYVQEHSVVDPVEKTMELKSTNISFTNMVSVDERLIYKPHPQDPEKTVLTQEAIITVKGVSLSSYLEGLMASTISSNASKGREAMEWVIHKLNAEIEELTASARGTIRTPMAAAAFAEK
Excerpt: To validate the docking analysis, biolayer interferometry (BLI) was employed to measure the interaction between PRELID3b and CK or CKD-4. The recombinant protein was purified by co-expression of PRELID3b with a hexa-histidine tag and the p53 regulated protein, TRIAP1 conjugated with maltose binding protein (MBP). The reported crystal structure of RELID3b is in complex with TRIAP1 and they form as a swapped dimer. PRELID3b is intrinsically unstable in the absence of TRIAP1 and easily degraded by mitochondrial protease. Maltose binding protein (MBP) is a necessary component to improve the solubility of the whole protein complex.
(§4) The sensor used is coated with Ni NTA so that proteins with the hexa-histidine tag could be immobilized on the sensor. After immobilization with protein, the sensor was incubated with the compounds at different concentrations in an ascending order. Both the stoichiometry of CK or CKD-4 with PRELID3b is in a 1:1 ratio but the kinetic modes for the two cases are different. […] The result is consistent with the docking analysis showing that the interaction between CKD-4 and PRELID3b is stronger than with CK.

PRELID3b = biological target: T3, PRELID3b (Homo sapiens, UniProt Q9Y3B1); test: Cellular thermal shift assay by western blotting, PRELID3b; format: cell-based; details: A549 cells, one hour
T3 construct: endogenous in cells; host or cells: A549
T3 sequence (Q9Y3B1 whole entry): as above
T3 sequence (O43715 whole entry partner): as the sequence (O43715 whole entry partner) above
Method: A549 cells were treated with 50 μM of CK or 15 uM of CKD-4 for one hour, where eight lysate aliquots were heated to indicated temperature.
as §2

[12] = tested on: cardiolipin in A549 cells; test: Mitochondrial cardiolipin quantification with cardiolipin probe; format: cell-based; details: 24-hour treatment
Method: FIG. 15A is a bar chart of the CK and CKD-4 induced apoptosis by quantification of cardiolipin in mitochondrial after treatment with CK or CKD-4 for 24 hours in A549 cells as mean±SD, **, P≤0.01, *, P≤0.05.
as §3

MBP = MBP (Escherichia coli, UniProt P0AEX9); test: Biolayer interferometry with his tag MBP (control); format: binding; details: various concentrations
Method: as §4

HepG2 cells = test: MTT cytotoxicity in HepG2 cells; format: cell-based; details: Homo sapiens; HepG2 liver cancer, 72 hours
MHCC97-L cells = test: MTT cytotoxicity in MHCC97-L cells; format: cell-based; details: MHCC97L; MHCC97-L liver cancer, 72 hours
SW480 cells = test: MTT cytotoxicity in SW480 cells; format: cell-based; details: Homo sapiens; SW480 colon cancer, 72 hours
Hela cells = test: MTT cytotoxicity in Hela cells; format: cell-based; details: Homo sapiens; Hela cervical cancer, 72 hours
Solubility = format: physicochemical; details: even in dimethyl sulfoxide (DMSO)
[13] = Homo sapiens, NCI-H460, 24 h, read-out: IC50 24 h
[14] = Homo sapiens, NCI-H460, 48 h, read-out: Cytotoxicity IC50
[15] = Homo sapiens, NCI-H460, 72 h, read-out: IC50 72 h
[16] = NCI-H1650, 24 h, read-out: IC50 24 h
[17] = NCI-H1650, 48 h, read-out: IC50 48 h
[18] = NCI-H1650, 72 h, read-out: IC50 72 h
[19] = A549, 24 h, read-out: IC50 24 h
[20] = A549, 48 h, read-out: IC50 48 h
[21] = A549, 72 h, read-out: IC50 72 h

Compound | IC50 (NCI-H460 cells [1]; [13]) [µM] | IC50 (NCI-H460 cells [1]; [14]) [µM] | IC50 (NCI-H460 cells [1]; [15]) [µM] | PRELID1 stability in PISA (PRELID1 [4]) | Body weight (NCI-H460 xenografts) | Tumor volume (NCI-H460 xenografts) | IC50 (NCI-H1650 cells; [16]) [µM] | IC50 (NCI-H1650 cells; [17]) [µM] | IC50 (NCI-H1650 cells; [18]) [µM] | IC50 (A549 cells [10]; [19]) [µM] | IC50 (A549 cells [10]; [20]) [µM] | IC50 (A549 cells [10]; [21]) [µM] | IC50 ([11]; 24 h, read-out: IC50 24 h) [µM] | IC50 ([11]; 48 h, read-out: IC50 48 h) [µM] | IC50 ([11]; 72 h, read-out: IC50 72 h) [µM] | Kinetic mode (on/off rate) (PRELID3b-TRIAP1-MBP) | Kd (PRELID3b-TRIAP1-MBP) [µM] | Amount of mitochondrial cardiolipin [12] | Response with MBP (MBP) | further results
COc1ccc(C2OCC3OC(OC(C)(CCC=C(C)C)C4CCC5(C)C4C(O)CC4C6(C)CCC(O)C(C)(C)C6CCC45C)C(O)C(O)C3O2)cc1 (centres unmarked) [CKD-4] | 23.3 ± 1.4 | 16.5 | 15.4 ± 0.1 | stabilized | No significant change in body weight | significant tumor volume inhibition | 43.7 ± 4.4 | 25.1 ± 1.5 | 20.3 ± 1.1 | 30.8 ± 3.7 | 23.9 ± 0.9 | 17.4 ± 1.2 | 57.5 ± 0.6 | 25.9 ± 4.4 | 17.9 ± 2.8 | slower | 5.3 | decreased significantly | no does-dependent response | Cytotoxic potency in comparison with CK (NCI-H460 cells [2]): three-fold more potent; Percentage of apoptotic cells (A549 cells [3]; A549, 20 μM): significant increase in the percentage of apoptotic cells; Level of cytochrome c in cytosol ([5]; 15 μM): dramatically enhanced; Cytochrome c release with PG in medium ([5]; 15 μM): Reduced level of cytochrome c was released; Thermal stability of PRELID1 (CETSA) (PRELID1 [6]; 15 μM): stabilization; Cell viability with supplement of PG (A549 cells [7]; A549, 12.5 μM): almost two-fold restored; Amount of CK found in CKD-4 treated cells (A549 cells [8]; 4 h): 1.33 % of total amount of CKD-4; Amount of CK found in CKD-4 treated cells (A549 cells [8]; 24 h): 1.05 % of total amount of CKD-4; Formation of tube (MS 1 cells; 15 μM): inhibition is more obvious; Suppression of cell viability ([9]; 20 μM, CellTiterGlo): less than 30%; Growth of patient derived organoid ([9]; 5, 10, 20, 35 and 50 μM): significantly inhibits the growth of patient derived organoid in a dose dependent manner; Kd smaller than Kd of CK (PRELID3b-TRIAP1-MBP): ~7 fold; Thermal stability of PRELID3b (CETSA) (PRELID3b; 15 uM): stabilization
CC(C)=CCC[C@](C)(OC1O[C@H](CO)[C@@H](O)[C@H](O)[C@H]1O)C1CC[C@]2(C)C1[C@H](O)CC1[C@@]3(C)CC[C@H](O)C(C)(C)C3CC[C@]12C (stereo partly drawn) [CK, 20-O-β-(D-glucopyranosyl)-20(S)-protopanaxadiol, reference compound] | 64.7 ± 9.3 | 53.4 ± 2.4 | 40.5 ± 0.9 | stabilized | No significant change in body weight | almost no difference | 80.7 ± 3.7 | 71.3 ± 7.1 | 59.3 ± 2.8 | 67.1 ± 4.6 | 64 ± 3.3 | 59.1 ± 3.4 | 73.6 ± 3.4 | 63.1 ± 2.7 | 42.3 ± 1.5 | fast on/off rate | 55.7 | decreased significantly | no does-dependent response | IC50 (HepG2 cells): 43.6 ± 1.6 µM; IC50 (NCI-H460 cells [1]; Homo sapiens, NCI-H460, 72 h, read-out: Cytotoxicity IC50): 45.1 ± 0.4 µM; Percentage of apoptotic cells (A549 cells [3]; A549, 60 μM): significant increase in the percentage of apoptotic cells; IC50 (MHCC97-L cells): 49.8 ± 0.3 µM; IC50 (SW480 cells): 46.2 ± 2.1 µM; Level of cytochrome c in cytosol ([5]; 50 μM): dramatically enhanced; Cytochrome c release with PG in medium ([5]; 50 μM): not observed; Thermal stability of PRELID1 (CETSA) (PRELID1 [6]; 50 μM): stabilization; Cell viability with supplement of PG (A549 cells [7]; A549, 100 μM): almost two-fold restored; Formation of tube (MS 1 cells; 40 μM): inhibited; IC50 (Hela cells): 36.2 ± 1.2 µM; Thermal stability of PRELID3b (CETSA) (PRELID3b; 50 μM): stabilization
CC(=O)OCC1OC(OC(C)(CCC=C(C)C)C2CCC3(C)C2C(OC(C)=O)CC2C4(C)CCC(OC(C)=O)C(C)(C)C4CCC23C)C(OC(C)=O)C(OC(C)=O)C1OC(C)=O (centres unmarked) [CKD-1] |  |  |  |  |  |  |  |  |  |  |  |  |  |  |  |  |  |  |  | Solubility (Solubility): poor solubility; IC50 (NCI-H460 cells [1]; read-out: Cytotoxicity IC50, NCI-H460 cells, 48 h (Table 2)): > 100 µM
